Data on 1 compound can be found in publication PMC5218480 (PLoS ONE, 2017).

The assay relates to MV-4-11 cells. As to the kind of experiment: Gene expression microarray analysis (Affymetrix PrimeView) and GSEA. The class given is cell-based, human. Set-up: RFU PODN (11730768_x_at) / Fold change /veh PODN (11730768_x_at) / RFU LINC00158 (11744669_a_at) / Fold change /veh LINC00158 (11744669_a_at) / RFU DUSP10 (11751237_a_at) / Fold change /veh DUSP10 (11751237_a_at) / RFU ID3 (11757404_x_at) / Fold change /veh ID3 (11757404_x_at) / RFU PLEKHG5 (11737974_s_at) / Fold change /veh PLEKHG5 (11737974_s_at) / RFU LRRC4B (11730491_at) / Fold change /veh LRRC4B (11730491_at) / RFU GIMAP4 (11747438_a_at) / Fold change /veh GIMAP4 (11747438_a_at) / RFU KRT8 (11758183_x_at) / Fold change /veh KRT8 (11758183_x_at) / RFU CNN1 (11734310_a_at) / Fold change /veh CNN1 (11734310_a_at) / RFU VPS37D (11726825_at) / Fold change /veh VPS37D (11726825_at) / RFU C10orf10 (11716522_x_at) / Fold change /veh C10orf10 (11716522_x_at) / RFU KIR2DL2 /// KIR2DL4 /// KIR2DL5A /// KIR2DL5B /// KIR2DS1 /// KIR2DS2 /// KIR2DS3 /// KIR2DS4 /// KIR3DL3 /// KIR3DL3 /// KIR3DS1 (11738374_at) / Fold change /veh KIR2DL2 /// KIR2DL4 /// KIR2DL5A /// KIR2DL5B /// KIR2DS1 /// KIR2DS2 /// KIR2DS3 /// KIR2DS4 /// KIR3DL3 /// KIR3DL3 /// KIR3DS1 (11738374_at) / RFU C1QL1 (11718748_at) / Fold change /veh C1QL1 (11718748_at) / RFU TMPRSS4 (11747572_a_at) / Fold change /veh TMPRSS4 (11747572_a_at) / RFU HAMP (11756126_x_at) / Fold change /veh HAMP (11756126_x_at) / RFU RNFT2 (11725882_a_at) / Fold change /veh RNFT2 (11725882_a_at) / RFU NR4A2 (11747474_a_at) / Fold change /veh NR4A2 (11747474_a_at) / RFU ABCC12 (11746883_a_at) / Fold change /veh ABCC12 (11746883_a_at) / RFU TMEM136 (11760407_x_at) / Fold change /veh TMEM136 (11760407_x_at) / RFU CLDN22 /// WWC2 (11732394_at) / Fold change /veh CLDN22 /// WWC2 (11732394_at) / RFU HLA-DPB1 (11760878_x_at) / Fold change /veh HLA-DPB1 (11760878_x_at) / RFU SPINT1 (11716480_a_at) / Fold change /veh SPINT1 (11716480_a_at) / RFU GAP43 (11754022_s_at) / Fold change /veh GAP43 (11754022_s_at) / RFU A4GNT (11735810_at) / Fold change /veh A4GNT (11735810_at) / RFU PRB3 (11715151_x_at) / Fold change /veh PRB3 (11715151_x_at) / RFU TUBB4B (11761932_at) / Fold change /veh TUBB4B (11761932_at) / RFU CAPN14 (11732068_a_at) / Fold change /veh CAPN14 (11732068_a_at) / RFU TMCC2 (11721928_a_at) / Fold change /veh TMCC2 (11721928_a_at) / RFU IRGQ (11745062_a_at) / Fold change /veh IRGQ (11745062_a_at) / RFU FAM174B (11720279_a_at) / Fold change /veh FAM174B (11720279_a_at) / RFU TMPRSS4 (11748680_a_at) / Fold change /veh TMPRSS4 (11748680_a_at) / RFU FAM212B (11763350_a_at) / Fold change /veh FAM212B (11763350_a_at) / RFU PLEKHG5 (11743358_a_at) / Fold change /veh PLEKHG5 (11743358_a_at) / RFU ZSCAN30 (11745921_a_at) / Fold change /veh ZSCAN30 (11745921_a_at) / RFU CMKLR1 (11741424_a_at) / Fold change /veh CMKLR1 (11741424_a_at) / RFU LOC101060620 /// MAPK8IP1 (11723275_at) / Fold change /veh LOC101060620 /// MAPK8IP1 (11723275_at) / RFU SPTSSB (11747773_x_at) / Fold change /veh SPTSSB (11747773_x_at) / RFU PRSS12 (11739890_at) / Fold change /veh PRSS12 (11739890_at) / RFU BIN1 (11741810_x_at) / Fold change /veh BIN1 (11741810_x_at) / RFU WNT11 (11732464_a_at) / Fold change /veh WNT11 (11732464_a_at) / RFU C10orf10 (11716521_a_at) / Fold change /veh C10orf10 (11716521_a_at) / RFU C5orf56 (11738089_at) / Fold change /veh C5orf56 (11738089_at) / RFU CYB561 (11721691_x_at) / Fold change /veh CYB561 (11721691_x_at) / RFU ANKRD19P (11752326_a_at) / Fold change /veh ANKRD19P (11752326_a_at) / RFU OR2T12 /// OR2T33 /// OR2T8 (11738714_s_at) / Fold change /veh OR2T12 /// OR2T33 /// OR2T8 (11738714_s_at) / RFU VCAN (11748164_a_at) / Fold change /veh VCAN (11748164_a_at) / RFU JSRP1 (11732532_at) / Fold change /veh JSRP1 (11732532_at) / RFU KRTAP10-11 (11738290_x_at) / Fold change /veh KRTAP10-11 (11738290_x_at) / RFU MYO3A (11730013_a_at) / Fold change /veh MYO3A (11730013_a_at) / RFU EBF3 (11725865_a_at) / Fold change /veh EBF3 (11725865_a_at) / RFU CAMK2N1 (11719241_x_at) / Fold change /veh CAMK2N1 (11719241_x_at) / RFU C5orf56 (11738088_a_at) / Fold change /veh C5orf56 (11738088_a_at) / RFU OLFML3 (11715873_a_at) / Fold change /veh OLFML3 (11715873_a_at) / RFU LOC100653217 /// NTM (11731650_a_at) / Fold change /veh LOC100653217 /// NTM (11731650_a_at) / RFU MAPK11 (11762145_a_at) / Fold change /veh MAPK11 (11762145_a_at) / RFU FIZ1 (11724087_x_at) / Fold change /veh FIZ1 (11724087_x_at) / RFU OASL (11726364_x_at) / Fold change /veh OASL (11726364_x_at) / RFU SOX15 (11748057_x_at) / Fold change /veh SOX15 (11748057_x_at) / RFU CD79A (11719716_a_at) / Fold change /veh CD79A (11719716_a_at) / RFU HIST1H1D (11736915_at) / Fold change /veh HIST1H1D (11736915_at) / RFU CASKIN2 (11723855_a_at) / Fold change /veh CASKIN2 (11723855_a_at) / RFU LOC730098 (11760151_x_at) / Fold change /veh LOC730098 (11760151_x_at) / RFU OR4N2 (11742367_at) / Fold change /veh OR4N2 (11742367_at) / RFU PRRT2 (11749266_a_at) / Fold change /veh PRRT2 (11749266_a_at) / RFU SNX32 (11753110_a_at) / Fold change /veh SNX32 (11753110_a_at) / RFU CDHR5 (11726645_a_at) / Fold change /veh CDHR5 (11726645_a_at) / RFU RCAN1 (11760418_a_at) / Fold change /veh RCAN1 (11760418_a_at) / RFU FAM167A (11723789_a_at) / Fold change /veh FAM167A (11723789_a_at) / RFU FAM26E (11764081_at) / Fold change /veh FAM26E (11764081_at) / RFU ISYNA1 (11749810_s_at) / Fold change /veh ISYNA1 (11749810_s_at) / RFU ACY1 (11761880_at) / Fold change /veh ACY1 (11761880_at) / RFU 11764098_at / Fold change /veh 11764098_at / RFU SAMD14 (11745864_x_at) / Fold change /veh SAMD14 (11745864_x_at) / RFU NPB (11741838_a_at) / Fold change /veh NPB (11741838_a_at) / RFU TMPRSS6 (11731388_a_at) / Fold change /veh TMPRSS6 (11731388_a_at) / RFU KRTAP10-2 (11738614_at) / Fold change /veh KRTAP10-2 (11738614_at) / RFU ARHGAP8 /// PRR5-ARHGAP8 (11727945_x_at) / Fold change /veh ARHGAP8 /// PRR5-ARHGAP8 (11727945_x_at) / RFU KRTAP5-7 /// NADSYN1 (11734609_at) / Fold change /veh KRTAP5-7 /// NADSYN1 (11734609_at) / RFU RASL12 (11751679_a_at) / Fold change /veh RASL12 (11751679_a_at) / RFU CDKN2B (11736163_a_at) / Fold change /veh CDKN2B (11736163_a_at) / RFU PRF1 (11729649_at) / Fold change /veh PRF1 (11729649_at) / RFU, ZNF638 /// ZNF638-IT1 / Fold change vs veh, ZNF638 /// ZNF638-IT1 / RFU, PANK3 / Fold change vs veh, PANK3 / RFU, SH3YL1 / Fold change vs veh, SH3YL1 / RFU, ZEB2 / Fold change vs veh, ZEB2 / RFU, NRIP1 / Fold change vs veh, NRIP1 / RFU, PTTG1IP / Fold change vs veh, PTTG1IP / RFU, CAPN2 / Fold change vs veh, CAPN2 / RFU, MED14 / Fold change vs veh, MED14 / RFU, SNORA58 / Fold change vs veh, SNORA58 / RFU, C1orf63 / Fold change vs veh, C1orf63 / RFU, LRRFIP1 / Fold change vs veh, LRRFIP1 / RFU, NDUFAF7 / Fold change vs veh, NDUFAF7 / RFU, SLC12A2 / Fold change vs veh, SLC12A2 / RFU, IBTK / Fold change vs veh, IBTK / RFU, ESF1 / Fold change vs veh, ESF1 / Fold change vs veh, TMEM50B / RFU, TAOK1 / Fold change vs veh, TAOK1 / RFU, ACBD3 / Fold change vs veh, ACBD3 / RFU, TMA16 / Fold change vs veh, TMA16 / RFU, RWDD3 / Fold change vs veh, RWDD3 / RFU, BCAT1 / Fold change vs veh, BCAT1 / RFU, EDEM3 / Fold change vs veh, EDEM3 / RFU, TMEM33 / Fold change vs veh, TMEM33 / RFU, WDR75 / Fold change vs veh, WDR75 / RFU, AHCTF1 / Fold change vs veh, AHCTF1 / RFU, TFRC / Fold change vs veh, TFRC / RFU, ZDHHC17 / Fold change vs veh, ZDHHC17 / RFU, NOM1 / Fold change vs veh, NOM1 / RFU, ARL8B / Fold change vs veh, ARL8B / RFU, ZBTB11 / Fold change vs veh, ZBTB11 / RFU, TAMM41 / Fold change vs veh, TAMM41 / RFU, KIAA1704 /// LOC100996395 / Fold change vs veh, KIAA1704 /// LOC100996395 / RFU, ING1 / Fold change vs veh, ING1 / RFU, TRMT61B / Fold change vs veh, TRMT61B / RFU, FUBP3 / Fold change vs veh, FUBP3 / RFU, TP53 / Fold change vs veh, TP53 / RFU, TNKS2 / Fold change vs veh, TNKS2 / RFU, ZFP14 / Fold change vs veh, ZFP14 / RFU, ACTR2 / Fold change vs veh, ACTR2 / RFU, PPP3R1 / Fold change vs veh, PPP3R1 / RFU, PIK3R1 / Fold change vs veh, PIK3R1 / RFU, HNRNPA1 / Fold change vs veh, HNRNPA1 / RFU, RNF170 / Fold change vs veh, RNF170 / RFU, ZNF28 / Fold change vs veh, ZNF28 / RFU, RNGTT / Fold change vs veh, RNGTT / RFU, OGT / Fold change vs veh, OGT / RFU, BRD1 / Fold change vs veh, BRD1 / RFU, MARS / Fold change vs veh, MARS / RFU, ZNF655 / Fold change vs veh, ZNF655 / RFU, FAHD1 / Fold change vs veh, FAHD1 / RFU, BDP1 / Fold change vs veh, BDP1 / RFU, LRRCC1 / Fold change vs veh, LRRCC1 / RFU, ARID1A / Fold change vs veh, ARID1A / RFU, ZNF146 / Fold change vs veh, ZNF146 / RFU, ZNF330 / Fold change vs veh, ZNF330 / RFU, GPN3 / Fold change vs veh, GPN3 / RFU, C9orf123 / Fold change vs veh, C9orf123 / RFU, N4BP2L2 / Fold change vs veh, N4BP2L2 / RFU, ARFIP1 / Fold change vs veh, ARFIP1 / RFU, FAM179B / Fold change vs veh, FAM179B / RFU, BCL10 / Fold change vs veh, BCL10 / RFU, UHRF1BP1L / Fold change vs veh, UHRF1BP1L / RFU, BET1 / Fold change vs veh, BET1 / RFU, CNOT2 / Fold change vs veh, CNOT2 / RFU, ZNF268 / Fold change vs veh, ZNF268 / Fold change vs veh, ZNF507 / RFU, DGCR2 / Fold change vs veh, DGCR2 / RFU, WDSUB1 / Fold change vs veh, WDSUB1 / Fold change vs veh, HSP90B1 /// MIR3652 / RFU, ADSS / Fold change vs veh, ADSS / RFU, GK / Fold change vs veh, GK / RFU, ZNF148 / Fold change vs veh, ZNF148 / RFU, TAF9 / Fold change vs veh, TAF9 / RFU, SLC1A5 / Fold change vs veh, SLC1A5 / RFU, SLMO2 / Fold change vs veh, SLMO2 / RFU, ABCC4 / Fold change vs veh, ABCC4 / RFU, LOC101060439 /// RAP1B / Fold change vs veh, LOC101060439 /// RAP1B / RFU, RFX7 / Fold change vs veh, RFX7 / RFU, GTPBP10 / Fold change vs veh, GTPBP10 / RFU, CNEP1R1 / Fold change vs veh, CNEP1R1 / RFU, BIVM-ERCC5 /// ERCC5 / Fold change vs veh, BIVM-ERCC5 /// ERCC5 / RFU, ILF3 / Fold change vs veh, ILF3 / RFU 11762660_at / Fold change /veh 11762660_at / RFU VCAN (11757783_s_at) / Fold change /veh VCAN (11757783_s_at) / RFU DDX43 (11728927_at) / Fold change /veh DDX43 (11728927_at) / RFU KRT8 (11758188_x_at) / Fold change /veh KRT8 (11758188_x_at) / RFU NKD1 (11759106_at) / Fold change /veh NKD1 (11759106_at) / RFU SRD5A1 (11742802_a_at) / Fold change /veh SRD5A1 (11742802_a_at) / RFU TPSAB1 /// TPSB2 (11721975_s_at) / Fold change /veh TPSAB1 /// TPSB2 (11721975_s_at) / RFU GSTM3 (11746129_a_at) / Fold change /veh GSTM3 (11746129_a_at) / RFU IL23R (11737362_x_at) / Fold change /veh IL23R (11737362_x_at) / RFU TMEM51 (11727254_a_at) / Fold change /veh TMEM51 (11727254_a_at) / RFU PIWIL2 (11732686_x_at) / Fold change /veh PIWIL2 (11732686_x_at) / RFU ORM1 (11744905_x_at) / Fold change /veh ORM1 (11744905_x_at) / RFU CCDC152 (11743942_at) / Fold change /veh CCDC152 (11743942_at) / RFU ECM1 (11717891_a_at) / Fold change /veh ECM1 (11717891_a_at) / RFU IL23R (11748794_a_at) / Fold change /veh IL23R (11748794_a_at) / RFU TNFAIP8L3 (11732012_x_at) / Fold change /veh TNFAIP8L3 (11732012_x_at) / RFU MBOAT4 (11741988_at) / Fold change /veh MBOAT4 (11741988_at) / RFU 11764193_at / Fold change /veh 11764193_at / RFU TMEM53 (11763286_at) / Fold change /veh TMEM53 (11763286_at) / RFU MAGEB2 (11727129_at) / Fold change /veh MAGEB2 (11727129_at) / RFU TMEM200A (11744735_a_at) / Fold change /veh TMEM200A (11744735_a_at) / RFU CCDC152 (11751479_a_at) / Fold change /veh CCDC152 (11751479_a_at) / RFU FAM211A (11726209_a_at) / Fold change /veh FAM211A (11726209_a_at) / RFU RGS16 (11746705_a_at) / Fold change /veh RGS16 (11746705_a_at) / RFU VCAN (11755009_s_at) / Fold change /veh VCAN (11755009_s_at) / RFU RHOB (11743442_s_at) / Fold change /veh RHOB (11743442_s_at) / RFU RGS16 (11720943_a_at) / Fold change /veh RGS16 (11720943_a_at) / RFU RGS16 (11720944_at) / Fold change /veh RGS16 (11720944_at) / RFU, VPS4B / Fold change vs veh, VPS4B / RFU, CREB1 / Fold change vs veh, CREB1 / RFU, DNAJC13 / Fold change vs veh, DNAJC13 / RFU, GNAQ / Fold change vs veh, GNAQ / RFU, CDK5R1 / Fold change vs veh, CDK5R1 / RFU, ZRANB3 / Fold change vs veh, ZRANB3 / RFU, CUL4A / Fold change vs veh, CUL4A / RFU, CCNY / Fold change vs veh, CCNY / RFU, UFL1 / Fold change vs veh, UFL1 / RFU, COG3 / Fold change vs veh, COG3 / RFU, DIAPH2 / Fold change vs veh, DIAPH2 / RFU, SKA2 / Fold change vs veh, SKA2 / RFU, AFF3 / Fold change vs veh, AFF3 / RFU, LMF1 / Fold change vs veh, LMF1 / RFU, IPO11 / Fold change vs veh, IPO11 / RFU, DFFB / Fold change vs veh, DFFB / RFU, FOXP1 / Fold change vs veh, FOXP1 / RFU, CARD8 / Fold change vs veh, CARD8 / RFU, STRN3 / Fold change vs veh, STRN3 / RFU, ADK / Fold change vs veh, ADK / RFU, RASSF2 / Fold change vs veh, RASSF2 / RFU, WIPF1 / Fold change vs veh, WIPF1 / RFU, LARP1B / Fold change vs veh, LARP1B / RFU, RASA1 / Fold change vs veh, RASA1 / RFU, RB1 / Fold change vs veh, RB1 / RFU, PPFIA1 / Fold change vs veh, PPFIA1 / RFU, MAT2A / Fold change vs veh, MAT2A / RFU, CCT5 / Fold change vs veh, CCT5 / RFU, WDR92 / Fold change vs veh, WDR92 / RFU, CUX1 / Fold change vs veh, CUX1 / RFU, TTC7A / Fold change vs veh, TTC7A / RFU, TMEM135 / Fold change vs veh, TMEM135 / RFU, DEPTOR / Fold change vs veh, DEPTOR / RFU, CPM / Fold change vs veh, CPM / RFU, DNAJB6 / Fold change vs veh, DNAJB6 / RFU, CACNA2D3 / Fold change vs veh, CACNA2D3 / RFU, DTX4 / Fold change vs veh, DTX4 / RFU, TFCP2 / Fold change vs veh, TFCP2 / RFU, GMCL1 /// GMCL1P1 / Fold change vs veh, GMCL1 /// GMCL1P1 / RFU, AEBP2 / Fold change vs veh, AEBP2 / RFU, SNHG1 /// SNORD22 /// SNORD25 /// SNORD26 /// SNORD27 /// SNORD28 /// SNORD29 /// SNORD31 / Fold change vs veh, SNHG1 /// SNORD22 /// SNORD25 /// SNORD26 /// SNORD27 /// SNORD28 /// SNORD29 /// SNORD31 / Fold change (Aza/veh), C12orf56 (ProbeSet 11735607_a_at) / Fold change (ACY-1035/veh), C12orf56 (ProbeSet 11735607_a_at) / Fold change (Aza/veh), FGFR1OP (ProbeSet 11751329_s_at) / Fold change (ACY-1035/veh), FGFR1OP (ProbeSet 11751329_s_at) / Fold change (Aza/veh), VPS36 (ProbeSet 11739960_a_at) / Fold change (ACY-1035/veh), VPS36 (ProbeSet 11739960_a_at) / RFU SYPL1 (11715823_x_at) / Fold change /veh SYPL1 (11715823_x_at) / RFU IGFBP7 (11715501_s_at) / Fold change /veh IGFBP7 (11715501_s_at) / RFU REEP3 (11722064_at) / Fold change /veh REEP3 (11722064_at) / RFU IGLL1 (11728026_x_at) / Fold change /veh IGLL1 (11728026_x_at): dose or concentration left out as unconfirmed. To be noted: ProbeSet 11750457_a_at; LIST B.

`Nc1ccc(-c2cccs2)cc1NC(=O)c1ccc2c(c1)cc(C1CC1)n2CCN1CCOCC1` [ACY-1035]: the “RFU, GTPBP10” value was determined as 30.83 RFU.
